# In PubChem BioAssay (NCI):
#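 Compound exposure: 48 hours, 5 concentrations, 96-well plates. GI50 is the concentration that inhibits growth by half. At the TGI there is no net growth.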
# Tests used:
# Test in all cases: NCI tumour cell line growth inhibition, 48 h
# SNB-75 CNS = system: SNB-75 CNS
# SNB-19 CNS = system: SNB-19 CNS
# M14 melanoma = system: M14 melanoma
# IGROV1 ovarian = system: IGROV1 ovarian
# MALME-3M melanoma = system: MALME-3M melanoma
# HOP-62 NSCLC = system: HOP-62 NSCLC
# K-562 leukemia = system: K-562 leukemia
# DU-145 prostate = system: DU-145 prostate
# MOLT-4 leukemia = system: MOLT-4 leukemia
# UO-31 renal = system: UO-31 renal
# KM12 colon = system: KM12 colon
# OVCAR-5 ovarian = system: OVCAR-5 ovarian
# CCRF-CEM leukemia = system: CCRF-CEM leukemia
# HS 578T breast = system: HS 578T breast
# EKVX NSCLC = system: EKVX NSCLC
# 786-0 renal = system: 786-0 renal
# RPMI-8226 leukemia = system: RPMI-8226 leukemia
# MDA-MB-468 breast = system: MDA-MB-468 breast
# HT29 colon = system: HT29 colon
# SF-268 CNS = system: SF-268 CNS
# LOX IMVI melanoma = system: LOX IMVI melanoma
# SK-MEL-28 melanoma = system: SK-MEL-28 melanoma
# NCI-H460 lung = system: NCI-H460 lung
# ACHN renal = system: ACHN renal
# SK-MEL-5 melanoma = system: SK-MEL-5 melanoma
# CAKI-1 renal = system: CAKI-1 renal
# MDA-MB-231 breast = system: MDA-MB-231 breast
# UACC-257 melanoma = system: UACC-257 melanoma
# NCI-H522 lung = system: NCI-H522 lung
# SR leukemia = system: SR leukemia
# T-47D breast = system: T-47D breast
# UACC-62 melanoma = system: UACC-62 melanoma
# MDA-MB-435 = system: MDA-MB-435
# NCI-H23 lung = system: NCI-H23 lung
# A549 NSCLC = system: A549 NSCLC
# A498 renal = system: A498 renal
# BT-549 breast = system: BT-549 breast
# SK-MEL-2 melanoma = system: SK-MEL-2 melanoma
# PC-3 prostate = system: PC-3 prostate
# TK-10 renal = system: TK-10 renal
# OVCAR-4 ovarian = system: OVCAR-4 ovarian
# HOP-92 NSCLC = system: HOP-92 NSCLC
# U251 CNS = system: U251 CNS
# NCI-H226 lung = system: NCI-H226 lung
# HCT-116 colon = system: HCT-116 colon
# SN12C renal = system: SN12C renal
# HCC-2998 colon = system: HCC-2998 colon
# SF-295 CNS = system: SF-295 CNS
# OVCAR-3 ovarian = system: OVCAR-3 ovarian
# MCF7 breast = system: MCF7 breast
# COLO 205 colon = system: COLO 205 colon
# SW-620 colon = system: SW-620 colon
# NCI/ADR-RES ovarian = system: NCI/ADR-RES ovarian
# RXF 393 renal = system: RXF 393 renal
# SK-OV-3 ovarian = system: SK-OV-3 ovarian
# SF-539 CNS = system: SF-539 CNS
# OVCAR-8 ovarian = system: OVCAR-8 ovarian
# HL-60(TB) leukemia = system: HL-60(TB) leukemia
# HCT-15 colon = system: HCT-15 colon
compound,measurement,setting,value
COc1ccc(S(=O)(=O)Nc2ccc(-c3ccc4c(c3)NC(=O)/C4=C\c3ccc[nH]3)cc2)cc1OC,GI50,SNB-75 CNS,1.37 µM
same,TGI,SNB-75 CNS,21.2 µM
same,GI50,SNB-19 CNS,12.6 µM
same,TGI,SNB-19 CNS,26.3 µM
same,GI50,M14 melanoma,2.4 µM
same,TGI,M14 melanoma,17.4 µM
same,GI50,IGROV1 ovarian,12.9 µM
same,TGI,IGROV1 ovarian,33 µM
same,GI50,MALME-3M melanoma,4.26 µM
same,TGI,MALME-3M melanoma,15.9 µM
same,GI50,HOP-62 NSCLC,10.2 µM
same,TGI,HOP-62 NSCLC,23.3 µM
same,GI50,K-562 leukemia,11.9 µM
same,TGI,K-562 leukemia,> 100 µM
same,GI50,DU-145 prostate,4.88 µM
same,TGI,DU-145 prostate,20.8 µM
same,GI50,MOLT-4 leukemia,14.8 µM
same,TGI,MOLT-4 leukemia,> 100 µM
same,GI50,UO-31 renal,12.9 µM
same,TGI,UO-31 renal,27.4 µM
same,GI50,KM12 colon,9.03 µM
same,TGI,KM12 colon,> 100 µM
same,GI50,OVCAR-5 ovarian,10.6 µM
same,TGI,OVCAR-5 ovarian,23.8 µM
same,GI50,CCRF-CEM leukemia,16.1 µM
same,TGI,CCRF-CEM leukemia,> 100 µM
same,GI50,HS 578T breast,4.6 µM
same,TGI,HS 578T breast,61.8 µM
same,GI50,EKVX NSCLC,0.0835 µM
same,TGI,EKVX NSCLC,17.5 µM
same,GI50,786-0 renal,3.43 µM
same,TGI,786-0 renal,15.2 µM
same,GI50,RPMI-8226 leukemia,8.33 µM
same,TGI,RPMI-8226 leukemia,> 100 µM
same,GI50,MDA-MB-468 breast,0.0309 µM
same,TGI,MDA-MB-468 breast,0.113 µM
same,GI50,HT29 colon,7.61 µM
same,TGI,HT29 colon,> 100 µM
same,GI50,SF-268 CNS,15.3 µM
same,TGI,SF-268 CNS,55.2 µM
same,GI50,LOX IMVI melanoma,6.39 µM
same,TGI,LOX IMVI melanoma,27.6 µM
same,GI50,SK-MEL-28 melanoma,0.886 µM
same,TGI,SK-MEL-28 melanoma,7.07 µM
same,GI50,NCI-H460 lung,0.343 µM
same,TGI,NCI-H460 lung,11.3 µM
same,GI50,ACHN renal,6.99 µM
same,TGI,ACHN renal,20.2 µM
same,GI50,SK-MEL-5 melanoma,3.35 µM
same,TGI,SK-MEL-5 melanoma,22.1 µM
same,GI50,CAKI-1 renal,6.18 µM
same,TGI,CAKI-1 renal,19.9 µM
same,GI50,MDA-MB-231 breast,3.82 µM
same,TGI,MDA-MB-231 breast,15.3 µM
same,GI50,UACC-257 melanoma,0.691 µM
same,TGI,UACC-257 melanoma,12.1 µM
same,GI50,NCI-H522 lung,3.25 µM
same,TGI,NCI-H522 lung,23 µM
same,GI50,SR leukemia,0.86 µM
same,TGI,SR leukemia,> 100 µM
same,GI50,T-47D breast,0.0285 µM
same,TGI,T-47D breast,1.27 µM
same,GI50,UACC-62 melanoma,0.75 µM
same,TGI,UACC-62 melanoma,8.59 µM
same,GI50,MDA-MB-435,6.35 µM
same,TGI,MDA-MB-435,38.9 µM
same,GI50,NCI-H23 lung,0.194 µM
same,TGI,NCI-H23 lung,14.7 µM
same,GI50,A549 NSCLC,2.18 µM
same,TGI,A549 NSCLC,14.2 µM
same,GI50,A498 renal,14.3 µM
same,TGI,A498 renal,28.5 µM
same,GI50,BT-549 breast,2.23 µM
same,TGI,BT-549 breast,9.35 µM
same,GI50,SK-MEL-2 melanoma,14.3 µM
same,TGI,SK-MEL-2 melanoma,33.8 µM
same,GI50,PC-3 prostate,10.1 µM
same,TGI,PC-3 prostate,41.3 µM
same,GI50,TK-10 renal,3.3 µM
same,TGI,TK-10 renal,18.7 µM
same,GI50,OVCAR-4 ovarian,1.76 µM
same,TGI,OVCAR-4 ovarian,11.8 µM
same,GI50,HOP-92 NSCLC,3.43 µM
same,TGI,HOP-92 NSCLC,18.3 µM
same,GI50,U251 CNS,10.1 µM
same,TGI,U251 CNS,23.2 µM
same,GI50,NCI-H226 lung,1.82 µM
same,TGI,NCI-H226 lung,12.8 µM
same,GI50,HCT-116 colon,4.72 µM
same,TGI,HCT-116 colon,88.5 µM
same,GI50,SN12C renal,12.4 µM
same,TGI,SN12C renal,30.8 µM
same,GI50,HCC-2998 colon,5.74 µM
same,TGI,HCC-2998 colon,> 100 µM
same,GI50,SF-295 CNS,3.12 µM
same,TGI,SF-295 CNS,15.1 µM
same,GI50,OVCAR-3 ovarian,8.4 µM
same,TGI,OVCAR-3 ovarian,27.5 µM
same,GI50,MCF7 breast,0.0476 µM
same,TGI,MCF7 breast,11.1 µM
same,GI50,COLO 205 colon,10.2 µM
same,TGI,COLO 205 colon,83.3 µM
same,GI50,SW-620 colon,8.53 µM
same,TGI,SW-620 colon,71.7 µM
same,GI50,NCI/ADR-RES ovarian,14 µM
same,TGI,NCI/ADR-RES ovarian,> 100 µM
same,GI50,RXF 393 renal,1.4 µM
same,TGI,RXF 393 renal,6.74 µM
same,GI50,SK-OV-3 ovarian,3.59 µM
same,TGI,SK-OV-3 ovarian,15.1 µM
same,GI50,SF-539 CNS,1.66 µM
same,TGI,SF-539 CNS,11 µM
same,GI50,OVCAR-8 ovarian,11.2 µM
same,TGI,OVCAR-8 ovarian,28.9 µM
same,GI50,HL-60(TB) leukemia,8.35 µM
same,TGI,HL-60(TB) leukemia,> 100 µM
same,GI50,HCT-15 colon,13.7 µM
same,TGI,HCT-15 colon,> 100 µM
